According to patent publication US20020142327A1, “Expression analysis of smarc nucleic acids and polypeptides useful in the diagnosis and treatment of prostate cancer” (priority 2000, published 2002):

Columns and labels:
Assay type in all cases: cell-based, Human
[1] = system: SMARCD3 expression; experiment: Affymetrix GeneChip expression analysis of LNCaP cells, SMARCD3
Experimental: (§1) Human prostatic cancer cell lines LNCaP, DU-145, PC-3, and Tsu-prl were obtained from ATCC. LNCaP cancer cells were maintained in humidified atmosphere of 5% CO2 in air in RPMI 1640 medium supplemented with 10% fetal calf serum (Life Technologies, Inc, Rockville, Md.), 3 mM L-glutamine, 100 μg/ml streptomycin and 100 units/ml penicillin. Other lines were maintained in DMEM containing 3 mM L-glutamine, 100 μg/ml streptomycin, 100 units/ml penicillin, and 10% FCS in humidified atmosphere of 5% CO2. To examine the effects of steroids, cells were cultured in RPMI 1640 medium containing 5% FCS treated with dextran coated charcoal (Hyclone, Logan, Utah) for 24 hs before treatment. Cells were grown in the absence or presence of 10 nM DHT for 0, 2, 4, 6, 12, 24, 48, and 72 hs. They were collected and frozen at each time point. Two hundred μl of medium were collected from each flask for PSA assay.
Total RNA was isolated from LNCaP cells using the Qiagen Rneasy Midi Kit following the manufacturer's recommendations. For polyA (+) selection, the Promega PolyATract kit was used according to manufacturer's procedures. Briefly, LNCaP cells were collected by centrifugation and the RNA isolated using the buffers and recommended procedures from the Qiagen kit. Following RNA extraction, all samples were frozen at −80° C. One microgram of poly A(+) RNA was used as template for synthesis of double-stranded cDNA using the GibcoBRL cDNA synthesis kit, with an oligo dT primer incorporating a T7 RNA polymerase promoter (10 minutes at 70° C. for priming, 65 minutes at 37° C. for first strand synthesis with Superscript II RT, followed by 150 min at 15.8° C. for second strand synthesis with E. coli ligase, E. coli polymerase, and RNAse H). […] The cRNA was purified by SPRI using paramagnetic beads (Bangs Laboratories), and total molar concentration was determined from the absorbance at 260. […]

[2] = system: PSA production; experiment: PSA ELISA on medium of LNCaP cells treated with DHT
Experimental: as §1
Quantification of PSA was performed using an ELISA. Briefly, a 96-well Nunc plate was coated with 100 μl of goat anti-PSA (1 μg/ml, Scripps laboratory, San Diego, Calif.) overnight at 4° C. The plate was washed with water three times and incubated with 100 μl of blocking buffer (PBS, 0.05% Tween 20, 1 μM EDTA, 0.25% BSA, and 0.05% NaN3) for 1 h at room temperature. The plate was washed three times with water and incubated with 1:1 mixture of mouse anti-human PSA and Eu-labeled anti-mouse IgG (10 ng/antibody each/well for 1½ hs at RT). The plate was then washed four times with water. 100 μl of Delfia Enhancement Solution (PerkinElmer Wallac Inc (Norton, Ohio) was added to the plate was read using a Victor reader according to the manufacturer's instruction.

[3] = system: prostate specific antigen (PSA) expression; experiment: Affymetrix GeneChip expression analysis of LNCaP cells, PSA; conditions: 10 nM DHT
Experimental: as §1
Total RNA was isolated from LNCaP cells using the Qiagen Rneasy Midi Kit following the manufacturer's recommendations. For polyA (+) selection, the Promega PolyATract kit was used according to manufacturer's procedures. […] The cRNA was purified by SPRI using paramagnetic beads (Bangs Laboratories), and total molar concentration was determined from the absorbance at 260. […]

[4] = system: LNCaP cells; experiment: Cell growth assay (MTT) of LNCaP cells treated with DHT
Experimental: as §1
To verify the effect of DHT on the growth of LNCaP cells, cells at 3,000 cells/well were plated in 96-well plates for 24 hs before treatment with DHT. After 72 hs, MTT was added to each well and incubated at 37° C. for four hs. At the end of incubation, the supernatant was removed and 100 μl DMSO was added to each well to dissolve […]. Plates were subsequently read in a plate reader at […].

For `C[C@]12CCC(=O)C[C@@H]1CC[C@@H]1[C@@H]2CC[C@]2(C)[C@@H](O)CC[C@@H]12` [DHT], the “decrease in SMARCD3 expression levels” value ([1]; 24 hours post-androgen treatment) was 2 fold, the “decrease in SMARCD3 expression levels” value ([1]; 48 hours post-treatment) was 4 fold and the “decrease in SMARCD3 expression levels” value ([1]; 72 hours post-treatment) was 6 fold. The “time at which PSA signal was first detected” value ([2]; DHT treatment) was 12 h, the “time of maximal PSA level” value ([2]; DHT treatment) was “about 48 hs” and the PSA production ([2]; dose response, ELISA) was “increased in a dose-dependent manner”. The “PSA expression increase relative to control” value ([3]; 12 hours) was 3 fold, the “PSA expression induction relative to control” value ([3]; 72 hours) was “approximately 4 fold” and the “growth effect at the chosen concentration” value ([4]; 10 nM DHT) was “robust growth-stimulatory effect”. For the same molecule, the “growth of LNCaP cells” value ([4]; dose response, 72 hs, MTT) was “stimulated”.
